Assay results from PubChem BioAssay (NCI).
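Briefly, cells in 96-well plates were exposed to five compound concentrations for 48 h, and endpoints were estimated by linear interpolation. Here, GI50 denotes the concentration required for 50% inhibition of growth. Definition used: TGI = concentration required for complete inhibition of growth.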

Legend:
Assay in all cases: inhibition of tumour cell growth, NCI panel, 48 h
A498 renal = system: A498 renal
HOP-62 NSCLC = system: HOP-62 NSCLC
NCI-H23 lung = system: NCI-H23 lung
HT29 colon = system: HT29 colon
KM12 colon = system: KM12 colon
TK-10 renal = system: TK-10 renal
CCRF-CEM leukemia = system: CCRF-CEM leukemia
SF-268 CNS = system: SF-268 CNS
K-562 leukemia = system: K-562 leukemia
NCI-H522 lung = system: NCI-H522 lung

Row | Compound | GI50 (A498 renal) [nM] | TGI (A498 renal) [µM] | GI50 (HOP-62 NSCLC) [nM] | TGI (HOP-62 NSCLC) [µM] | GI50 (NCI-H23 lung) [nM] | TGI (NCI-H23 lung) [µM] | GI50 (HT29 colon) [nM] | TGI (HT29 colon) [µM] | GI50 (KM12 colon) [nM] | TGI (KM12 colon) [µM] | GI50 (TK-10 renal) [µM] | TGI (TK-10 renal) [µM] | GI50 (CCRF-CEM leukemia) [nM] | TGI (CCRF-CEM leukemia) [µM] | GI50 (SF-268 CNS) [nM] | TGI (SF-268 CNS) [µM] | GI50 (K-562 leukemia) [nM] | TGI (K-562 leukemia) [µM] | GI50 (NCI-H522 lung) [nM] | TGI (NCI-H522 lung) [µM]
1 | O=C(Nc1ccccc1C(=O)N/N=C(\c1ccccc1)c1ccccn1)c1ccc(F)cc1 | 1370 | 9.43 | 214 | > 38.5 | 595 | > 100 | 165 | > 100 | 421 | > 100 | 0.408 | > 100 | 121 | > 100 | 364 | > 100 | 519 | > 100 | 393 | > 28.6
2 | COc1ccc(C(O)CC(O)(C(F)(F)F)C(F)(F)F)cc1 (stereo not given) | – | 64.1 | – | > 100 | – | 77.5 | – | > 100 | – | > 100 | – | > 100 | – | 45.7 | – | > 100 | – | 53.6 | – | > 100
3 | COC(OC)c1cc2c(cc1C(=O)[C@@]13CCC[C@@H]1NC(=O)O3)OCO2 | – | > 100 | – | > 100 | – | > 100 | – | > 100 | – | > 100 | – | > 100 | – | > 100 | – | > 100 | – | > 100 | – | > 100
4 | O=c1[nH]c2ccccc2n1-c1n[nH]c2ccccc12 | 51300 | > 100 | 33200 | > 100 | 38500 | > 100 | 37600 | > 100 | 3210 | > 100 | 40.7 | > 100 | 15200 | > 100 | 25100 | > 100 | 31300 | > 100 | 19700 | 48.7
5 | CC/C=C\C/C=C\C[C@H](O)C/C=C1/C(=O)C=C[C@@H]1C/C=C\CCCC(=O)OC | 2480 | 4.67 | 1650 | 4.1 | 2190 | 5.29 | 1480 | 3.21 | 1800 | 5.02 | 2.95 | 7.68 | 315 | 1.77 | 2570 | 11 | 546 | 12.5 | 1030 | 2.36
6 | COc1ccccc1NC(=O)C(CC(C(=O)Nc1ccccc1OC)/C(C)=N/Nc1ccc([N+](=O)[O-])cc1[N+](=O)[O-])/C(C)=N/Nc1ccc([N+](=O)[O-])cc1[N+](=O)[O-] (stereo not given) | – | > 100 | – | > 100 | – | > 100 | – | > 100 | – | > 100 | – | 60 | – | > 100 | – | > 100 | – | > 100 | – | > 100
7 | COc1ccc(OC)c2c3c(ccc12)C(c1ccccc1)OC3=O (stereo not given) | – | > 100 | – | > 100 | – | > 100 | – | > 100 | – | > 100 | – | > 100 | – | > 100 | – | > 100 | – | > 100 | – | > 100
8 | COc1cnc2cc(C(=O)O)c3ccccc3c2c1 | – | > 100 | – | > 100 | – | > 100 | – | > 100 | – | > 100 | – | > 100 | – | > 100 | – | > 100 | – | > 100 | – | > 100
9 | COc1cc(/C=C(\C#N)C(N)=C(C#N)C#N)cc(O)c1O | – | > 100 | – | > 100 | – | > 100 | – | > 100 | – | > 100 | – | > 100 | – | > 81.1 | – | > 100 | – | > 100 | – | > 100
10 | CC(=O)C1C(=O)N(C(C)C)C[C@@H]2CCC(=O)C[C@H]12 (stereo not given in full) | – | > 100 | – | > 100 | – | > 100 | – | > 100 | – | > 100 | – | > 100 | – | > 100 | – | > 100 | – | > 100 | – | > 100
11 | CC1(C)OC2C(COS(N)(=O)=O)SC(n3cnc4cncnc43)C2O1 (stereo not given) | > 100000 | > 100 | > 100000 | > 100 | > 100000 | > 100 | > 100000 | > 100 | > 100000 | > 100 | > 100 | > 100 | > 100000 | > 100 | > 100000 | > 100 | > 100000 | > 100 | > 100000 | > 100
12 | CC(C)C(=O)Oc1cc2c(=O)oc3c(OC(=O)C(C)C)c(OC(=O)C(C)C)cc4c(=O)oc(c1OC(=O)C(C)C)c2c34 | – | > 100 | – | > 100 | – | > 100 | – | > 100 | – | > 100 | – | > 100 | – | > 100 | – | > 100 | – | > 100 | – | > 100
13 | Oc1[nH]c2cc(Cl)ccc2c1/C=c1/ccc2c(c1)N=C(c1cc(F)cc(F)c1)N=2 | 1240 | 6.36 | 1350 | 8.44 | 2470 | 13 | 1720 | 5.94 | 2200 | 7.06 | 5.53 | 18.8 | 657 | 3.47 | 2350 | 11.7 | 821 | 12.1 | 1190 | 3.38
14 | Oc1ccc(Cl)cc1Cc1cc(Cl)ccc1O | 1980 | 9.84 | 2390 | 7.56 | 2040 | 5.79 | 3550 | 10.6 | 3060 | 11.1 | 3.65 | 11.3 | 2430 | 9.79 | 2810 | 11.3 | 3300 | 13.7 | 1920 | 5.32
